# Laboratory results: paper PMC7347136 (PLoS ONE, 2020)
# Assays:
# Test in all cases: Carna kinase panel screen
# Format in all cases: biochemical
# Conditions in all cases: read-out: % Inhibition ± SD
# PBK = molecular target: T1, PBK (Homo sapiens, UniProt Q96KB5)
# T1 construct: purchased Carna Biosciences
# Procedure, shortened: (§1)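 Each compound was tested at 10 concentrations with ATP set close to its Km value. Percentage inhibition at each concentration was calculated and the IC50 derived by four-parameter logistic fitting.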
# PKCi = molecular target: T2, PKCi (Homo sapiens, UniProt P41743)
# T2 construct: purchased Carna Biosciences
# Procedure, shortened: as §1
# CaMK2g = molecular target: T3, CaMK2g (Homo sapiens, UniProt Q13555)
# T3 construct: purchased Carna Biosciences
# Procedure, shortened: (§2)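 Inhibition was measured across ten compound concentrations at Km-approximating ATP. A four-parameter logistic curve fitted to the percentage-inhibition data yields the IC50.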
# PRKX = molecular target: T4, PRKX (Homo sapiens, UniProt P51817)
# T4 construct: purchased Carna Biosciences
# Procedure, shortened: as §1
# PKCg = molecular target: T5, PKCg (Homo sapiens, UniProt P05129)
# T5 construct: purchased Carna Biosciences
# Procedure, shortened: as §1
# p70S6K = molecular target: T6, p70S6K (Homo sapiens, UniProt P23443)
# T6 construct: purchased Carna Biosciences
# Procedure, shortened: as §1
# CK1e = molecular target: T7, CK1e (Homo sapiens, UniProt P49674)
# T7 construct: purchased Carna Biosciences
# Procedure, shortened: as §1
# PDGFRa = molecular target: T8, PDGFRa (Homo sapiens, UniProt P16234)
# T8 construct: purchased Carna Biosciences
# Procedure, shortened: as §1
# BRAF = molecular target: T9, BRAF (Homo sapiens, UniProt P15056)
# T9 construct: purchased Carna Biosciences
# Procedure, shortened: as §1
# EphA2 = molecular target: T10, EphA2 (Homo sapiens, UniProt P29317)
# T10 construct: purchased Carna Biosciences
# Procedure, shortened: as §1
# FLT4 = molecular target: T11, FLT4 (Homo sapiens, UniProt P35916)
# T11 construct: purchased Carna Biosciences
# Procedure, shortened: as §1
# MAP3K3 = molecular target: T12, MAP3K3 (Homo sapiens, UniProt Q99759)
# T12 construct: purchased Carna Biosciences
# Procedure, shortened: as §1
# MAPKAPK2 = molecular target: T13, MAPKAPK2 (Homo sapiens, UniProt P49137)
# T13 construct: purchased Carna Biosciences
# Procedure, shortened: as §1
# CDK4 = molecular target: T14, CDK4 (Homo sapiens, UniProt P11802)
# T14 construct: purchased Carna Biosciences
# Procedure, shortened: as §2
# PKD3 = molecular target: T15, PKD3 (Homo sapiens, UniProt O94806)
# T15 construct: purchased Carna Biosciences
# Procedure, shortened: as §1
# MGC42105 = molecular target: T16, MGC42105 (Homo sapiens, UniProt Q8IY84)
# T16 construct: purchased Carna Biosciences
# Procedure, shortened: as §2
# KDR = molecular target: T17, KDR (Homo sapiens, UniProt P35968)
# T17 construct: purchased Carna Biosciences
# Procedure, shortened: as §1
# MNK1 = molecular target: T18, MNK1 (Homo sapiens, UniProt Q9BUB5)
# T18 construct: purchased Carna Biosciences
# Procedure, shortened: as §1
# AKT2 = molecular target: T19, AKT2 (Homo sapiens, UniProt P31751)
# T19 construct: purchased Carna Biosciences
# Procedure, shortened: as §1
# MAP3K1 = molecular target: T20, MAP3K1 (Homo sapiens, UniProt Q13233)
# T20 construct: purchased Carna Biosciences
# Procedure, shortened: as §1
# CaMK2a = molecular target: T21, CaMK2a (Homo sapiens, UniProt Q9UQM7)
# T21 construct: purchased Carna Biosciences
# Procedure, shortened: as §2
# EphA8 = molecular target: T22, EphA8 (Homo sapiens, UniProt P29322)
# T22 construct: purchased Carna Biosciences
# Procedure, shortened: as §2
# HER4 = molecular target: T23, HER4 (Homo sapiens, UniProt Q15303)
# T23 construct: purchased Carna Biosciences
# Procedure, shortened: as §1
# PDGFRb = molecular target: T24, PDGFRb (Homo sapiens, UniProt P09619)
# T24 construct: purchased Carna Biosciences
# Procedure, shortened: as §1
# CSK = molecular target: T25, CSK (Homo sapiens, UniProt P41240)
# T25 construct: purchased Carna Biosciences
# Procedure, shortened: as §1
# MAP2K1 = molecular target: T26, MAP2K1 (Homo sapiens, UniProt Q02750)
# T26 construct: purchased Carna Biosciences
# Procedure, shortened: as §1
# ALK = molecular target: T27, ALK (Homo sapiens, UniProt Q9UM73)
# T27 construct: purchased Carna Biosciences
# Procedure, shortened: as §1
# p38a = molecular target: T28, p38a (Homo sapiens, UniProt Q16539)
# T28 construct: purchased Carna Biosciences
# Procedure, shortened: as §1
# BRSK1 = molecular target: T29, BRSK1 (Homo sapiens, UniProt Q8TDC3)
# T29 construct: purchased Carna Biosciences
# Procedure, shortened: as §1
# p70S6Kb = molecular target: T30, p70S6Kb (Homo sapiens, UniProt Q9UBS0)
# T30 construct: purchased Carna Biosciences
# Procedure, shortened: as §1
# PYK2 = molecular target: T31, PYK2 (Homo sapiens, UniProt Q14289)
# T31 construct: purchased Carna Biosciences
# Procedure, shortened: as §1
# ABL[T315I] = molecular target: T32, ABL[T315I] (Homo sapiens, UniProt P00519, T315I)
# T32 construct: purchased Carna Biosciences
# Procedure, shortened: as §1
# TYRO3 = molecular target: T33, TYRO3 (Homo sapiens, UniProt Q06418)
# T33 construct: purchased Carna Biosciences
# Procedure, shortened: as §1
# MARK4 = molecular target: T34, MARK4 (Homo sapiens, UniProt Q96L34)
# T34 construct: purchased Carna Biosciences
# Procedure, shortened: as §1
# MLK2 = molecular target: T35, MLK2 (Homo sapiens, UniProt Q02779)
# T35 construct: purchased Carna Biosciences
# Procedure, shortened: as §1
# NEK9 = molecular target: T36, NEK9 (Homo sapiens, UniProt Q8TD19)
# T36 construct: purchased Carna Biosciences
# Procedure, shortened: as §1
# TSSK2 = molecular target: T37, TSSK2 (Homo sapiens, UniProt Q96PF2)
# T37 construct: purchased Carna Biosciences
# Procedure, shortened: as §2
# MST4 = molecular target: T38, MST4 (Homo sapiens, UniProt Q9P289)
# T38 construct: purchased Carna Biosciences
# Procedure, shortened: as §1
# PKCh = molecular target: T39, PKCh (Homo sapiens, UniProt P24723)
# T39 construct: purchased Carna Biosciences
# Procedure, shortened: as §1
# FES = molecular target: T40, FES (Homo sapiens, UniProt P07332)
# T40 construct: purchased Carna Biosciences
# Procedure, shortened: as §1
# RSK2 = molecular target: T41, RSK2 (Homo sapiens, UniProt P51812)
# T41 construct: purchased Carna Biosciences
# Procedure, shortened: as §1
# CDK7 = molecular target: T42, CDK7 (Homo sapiens, UniProt P50613)
# T42 construct: purchased Carna Biosciences
# Procedure, shortened: as §1
# PKACa = molecular target: T43, PKACa (Homo sapiens, UniProt P17612)
# T43 construct: purchased Carna Biosciences
# Procedure, shortened: as §1
# T22 sequence (P29322 28-1005): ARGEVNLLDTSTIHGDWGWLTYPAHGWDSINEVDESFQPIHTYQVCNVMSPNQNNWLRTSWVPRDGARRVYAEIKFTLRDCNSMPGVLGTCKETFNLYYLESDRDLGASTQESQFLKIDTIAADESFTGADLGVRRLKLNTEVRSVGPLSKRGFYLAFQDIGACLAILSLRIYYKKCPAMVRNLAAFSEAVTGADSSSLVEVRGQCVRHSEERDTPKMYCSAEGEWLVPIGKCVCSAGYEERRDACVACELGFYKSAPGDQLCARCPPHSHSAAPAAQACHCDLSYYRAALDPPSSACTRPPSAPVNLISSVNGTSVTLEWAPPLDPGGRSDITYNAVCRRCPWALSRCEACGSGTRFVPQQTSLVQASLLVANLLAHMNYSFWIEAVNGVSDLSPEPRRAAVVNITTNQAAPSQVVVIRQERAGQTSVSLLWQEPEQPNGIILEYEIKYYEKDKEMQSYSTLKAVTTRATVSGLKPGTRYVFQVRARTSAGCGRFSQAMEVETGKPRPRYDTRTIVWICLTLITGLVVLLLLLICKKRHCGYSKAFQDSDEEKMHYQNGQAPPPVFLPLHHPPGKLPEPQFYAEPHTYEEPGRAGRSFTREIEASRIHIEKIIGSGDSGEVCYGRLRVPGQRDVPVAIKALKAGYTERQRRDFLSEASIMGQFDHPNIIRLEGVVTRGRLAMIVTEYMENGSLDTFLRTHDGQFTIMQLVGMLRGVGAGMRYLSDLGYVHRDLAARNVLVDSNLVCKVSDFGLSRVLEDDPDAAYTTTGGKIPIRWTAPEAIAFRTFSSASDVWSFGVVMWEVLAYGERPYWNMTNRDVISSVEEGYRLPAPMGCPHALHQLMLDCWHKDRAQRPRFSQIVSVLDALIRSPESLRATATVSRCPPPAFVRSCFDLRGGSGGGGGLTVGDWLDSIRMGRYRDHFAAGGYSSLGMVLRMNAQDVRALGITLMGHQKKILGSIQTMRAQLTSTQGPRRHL
# T15 sequence (O94806 whole entry): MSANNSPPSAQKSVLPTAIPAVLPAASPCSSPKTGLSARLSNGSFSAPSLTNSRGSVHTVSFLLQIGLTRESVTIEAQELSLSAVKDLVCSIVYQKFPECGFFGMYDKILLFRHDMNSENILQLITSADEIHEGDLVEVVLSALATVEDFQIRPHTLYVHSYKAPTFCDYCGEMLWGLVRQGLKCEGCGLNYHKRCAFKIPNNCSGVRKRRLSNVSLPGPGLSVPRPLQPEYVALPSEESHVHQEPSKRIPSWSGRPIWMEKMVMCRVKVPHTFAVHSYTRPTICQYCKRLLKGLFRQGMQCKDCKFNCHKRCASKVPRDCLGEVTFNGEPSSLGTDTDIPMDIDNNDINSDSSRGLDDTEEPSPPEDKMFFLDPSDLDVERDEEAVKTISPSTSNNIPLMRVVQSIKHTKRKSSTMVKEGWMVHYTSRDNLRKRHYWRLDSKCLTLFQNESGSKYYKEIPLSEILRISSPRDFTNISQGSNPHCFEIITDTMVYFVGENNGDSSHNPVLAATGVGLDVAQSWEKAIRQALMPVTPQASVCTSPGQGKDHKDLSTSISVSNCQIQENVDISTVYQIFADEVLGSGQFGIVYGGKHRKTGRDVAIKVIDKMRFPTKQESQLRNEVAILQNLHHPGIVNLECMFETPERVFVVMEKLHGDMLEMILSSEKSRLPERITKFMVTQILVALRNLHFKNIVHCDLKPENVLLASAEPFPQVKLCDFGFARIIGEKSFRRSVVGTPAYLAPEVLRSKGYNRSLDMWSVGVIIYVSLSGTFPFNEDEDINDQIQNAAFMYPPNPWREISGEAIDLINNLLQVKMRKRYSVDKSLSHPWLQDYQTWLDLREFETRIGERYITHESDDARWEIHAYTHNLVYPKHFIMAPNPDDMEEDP
# T9 sequence (P15056 whole entry): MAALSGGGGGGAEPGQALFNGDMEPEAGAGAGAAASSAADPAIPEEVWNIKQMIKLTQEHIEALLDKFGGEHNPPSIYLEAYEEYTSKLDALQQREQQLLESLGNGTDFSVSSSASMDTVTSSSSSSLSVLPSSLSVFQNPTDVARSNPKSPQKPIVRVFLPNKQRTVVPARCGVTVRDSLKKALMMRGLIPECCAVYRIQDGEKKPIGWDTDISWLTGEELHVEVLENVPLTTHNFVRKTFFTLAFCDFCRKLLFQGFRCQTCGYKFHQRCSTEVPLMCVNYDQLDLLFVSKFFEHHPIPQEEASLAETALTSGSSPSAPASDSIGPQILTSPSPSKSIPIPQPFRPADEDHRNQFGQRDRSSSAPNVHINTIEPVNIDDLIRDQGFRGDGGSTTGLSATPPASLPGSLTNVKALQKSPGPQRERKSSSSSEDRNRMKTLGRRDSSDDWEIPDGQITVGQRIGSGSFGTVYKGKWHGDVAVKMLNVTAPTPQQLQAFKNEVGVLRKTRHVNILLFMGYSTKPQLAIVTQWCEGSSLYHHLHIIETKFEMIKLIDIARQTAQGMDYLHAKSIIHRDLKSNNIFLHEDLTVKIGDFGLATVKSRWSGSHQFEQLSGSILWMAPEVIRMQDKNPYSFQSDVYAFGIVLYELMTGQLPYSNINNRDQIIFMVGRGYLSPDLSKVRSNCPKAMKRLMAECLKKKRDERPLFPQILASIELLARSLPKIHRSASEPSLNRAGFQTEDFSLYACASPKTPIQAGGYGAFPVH
# T10 sequence (P29317 24-976): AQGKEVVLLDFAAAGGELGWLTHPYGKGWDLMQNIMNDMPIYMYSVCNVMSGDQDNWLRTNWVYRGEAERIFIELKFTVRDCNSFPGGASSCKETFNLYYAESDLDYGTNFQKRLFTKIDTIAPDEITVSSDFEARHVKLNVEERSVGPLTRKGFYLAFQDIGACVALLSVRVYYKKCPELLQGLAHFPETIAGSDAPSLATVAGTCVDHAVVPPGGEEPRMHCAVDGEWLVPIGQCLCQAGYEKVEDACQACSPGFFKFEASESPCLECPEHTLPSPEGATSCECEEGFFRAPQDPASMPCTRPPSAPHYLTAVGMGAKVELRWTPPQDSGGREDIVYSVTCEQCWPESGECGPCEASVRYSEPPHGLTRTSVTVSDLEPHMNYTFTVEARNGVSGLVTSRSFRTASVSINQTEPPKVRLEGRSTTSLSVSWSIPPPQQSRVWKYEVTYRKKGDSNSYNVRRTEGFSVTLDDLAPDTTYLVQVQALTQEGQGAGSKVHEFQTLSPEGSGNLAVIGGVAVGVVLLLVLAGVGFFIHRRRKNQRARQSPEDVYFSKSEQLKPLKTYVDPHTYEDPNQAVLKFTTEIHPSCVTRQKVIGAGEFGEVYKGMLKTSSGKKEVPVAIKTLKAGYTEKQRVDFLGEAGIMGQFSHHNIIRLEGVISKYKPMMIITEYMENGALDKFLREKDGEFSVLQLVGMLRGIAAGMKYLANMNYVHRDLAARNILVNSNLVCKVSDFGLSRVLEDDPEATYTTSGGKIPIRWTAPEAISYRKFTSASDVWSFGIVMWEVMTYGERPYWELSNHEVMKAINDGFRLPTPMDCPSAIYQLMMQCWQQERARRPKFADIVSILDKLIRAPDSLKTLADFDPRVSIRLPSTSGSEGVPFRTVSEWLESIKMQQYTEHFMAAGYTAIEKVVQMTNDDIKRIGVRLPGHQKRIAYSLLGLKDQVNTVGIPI
# T14 sequence (P11802 whole entry): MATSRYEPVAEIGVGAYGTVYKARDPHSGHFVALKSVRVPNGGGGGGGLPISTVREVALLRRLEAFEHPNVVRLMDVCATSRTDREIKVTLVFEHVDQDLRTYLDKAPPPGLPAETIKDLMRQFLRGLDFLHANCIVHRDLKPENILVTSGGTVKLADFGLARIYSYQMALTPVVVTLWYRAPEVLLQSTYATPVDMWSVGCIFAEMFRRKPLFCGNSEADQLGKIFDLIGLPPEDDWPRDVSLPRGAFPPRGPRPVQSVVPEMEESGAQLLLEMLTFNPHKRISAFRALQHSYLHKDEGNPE
# T14 sequence (P30281 whole entry partner): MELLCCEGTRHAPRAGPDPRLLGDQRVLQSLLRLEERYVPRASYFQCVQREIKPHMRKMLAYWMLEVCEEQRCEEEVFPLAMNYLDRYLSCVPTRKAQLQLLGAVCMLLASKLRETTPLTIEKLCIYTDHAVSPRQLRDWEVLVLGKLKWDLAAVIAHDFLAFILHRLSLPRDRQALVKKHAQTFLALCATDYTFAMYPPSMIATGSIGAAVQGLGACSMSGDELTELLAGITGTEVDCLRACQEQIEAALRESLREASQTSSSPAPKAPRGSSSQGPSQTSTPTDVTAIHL
# T12 sequence (Q99759 whole entry): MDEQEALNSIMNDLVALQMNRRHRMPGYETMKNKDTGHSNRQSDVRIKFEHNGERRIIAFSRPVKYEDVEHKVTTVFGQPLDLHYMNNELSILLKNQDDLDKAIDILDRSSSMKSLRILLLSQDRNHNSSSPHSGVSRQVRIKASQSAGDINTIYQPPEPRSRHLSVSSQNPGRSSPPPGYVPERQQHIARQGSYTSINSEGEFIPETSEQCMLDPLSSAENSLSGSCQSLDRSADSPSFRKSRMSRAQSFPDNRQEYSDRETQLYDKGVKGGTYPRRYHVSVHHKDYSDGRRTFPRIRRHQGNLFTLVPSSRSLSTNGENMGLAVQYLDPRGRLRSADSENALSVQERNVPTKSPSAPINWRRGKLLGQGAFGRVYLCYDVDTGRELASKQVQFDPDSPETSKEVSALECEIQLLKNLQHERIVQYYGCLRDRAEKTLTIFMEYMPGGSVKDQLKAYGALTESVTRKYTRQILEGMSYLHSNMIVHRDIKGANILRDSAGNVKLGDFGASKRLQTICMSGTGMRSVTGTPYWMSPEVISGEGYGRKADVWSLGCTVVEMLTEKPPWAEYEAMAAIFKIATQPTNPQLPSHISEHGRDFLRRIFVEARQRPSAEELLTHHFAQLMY
structure (smiles),measurement,setting,value
"CC[C@H](Nc1nc(NCc2cnc(C)cc2C)c2ncn(C(C)C)c2n1)[C@@H](C)O [Fadraciclib, 2-pentanol, 3-[[6-[[(4,6-dimethyl-3-pyridinyl)methyl]amino]-9-(1-methylethyl)-9Hpurin-2-yl]amino]-, (2R,3S)]",inhibition at 1 µM,PBK,-0.9%
same,inhibition at 1 µM,PKCi,-13.6 ± 0.5%
same,inhibition at 1 µM,CaMK2g,12.5 ± 0.4%
same,inhibition at 1 µM,PRKX,-4.2%
same,inhibition at 1 µM,PKCg,17.2%
same,inhibition at 1 µM,p70S6K,5.6 ± 0.2%
same,inhibition at 1 µM,CK1e,19.8 ± 0.5%
same,inhibition at 1 µM,PDGFRa,5.8 ± 0.2%
same,inhibition at 1 µM,BRAF,-8.4 ± 1%
same,inhibition at 1 µM,EphA2,3.8%
same,inhibition at 1 µM,FLT4,6.3 ± 0.2%
same,inhibition at 1 µM,MAP3K3,-2.6 ± 0.1%
same,inhibition at 1 µM,MAPKAPK2,-8.6 ± 0.1%
same,inhibition at 1 µM,CDK4,75.7 ± 5%
same,inhibition at 1 µM,PKD3,-1.4%
same,inhibition at 1 µM,MGC42105,-7.3 ± 0.1%
same,inhibition at 1 µM,KDR,-12.8 ± 0.1%
same,inhibition at 1 µM,MNK1,-13.1 ± 1.6%
same,inhibition at 1 µM,AKT2,1.5 ± 0.1%
same,inhibition at 1 µM,MAP3K1,-6.6 ± 0.1%
same,inhibition at 1 µM,CaMK2a,-3.6 ± 0.1%
same,inhibition at 1 µM,EphA8,4.2 ± 0.2%
same,inhibition at 1 µM,HER4,-13 ± 0.3%
same,inhibition at 1 µM,PDGFRb,3.2 ± 0.1%
same,inhibition at 1 µM,CSK,-18.7 ± 0.4%
same,inhibition at 1 µM,MAP2K1,-6.8 ± 0.1%
same,inhibition at 1 µM,ALK,-9 ± 0.3%
same,inhibition at 1 µM,p38a,-13.3 ± 0.3%
same,inhibition at 1 µM,BRSK1,-11.5 ± 0.1%
same,inhibition at 1 µM,p70S6Kb,1.9%
same,inhibition at 1 µM,PYK2,11.7 ± 0.2%
same,inhibition at 1 µM,ABL[T315I],-13 ± 0.1%
same,inhibition at 1 µM,TYRO3,-14.8 ± 0.2%
same,inhibition at 1 µM,MARK4,-5.1 ± 0.4%
same,inhibition at 1 µM,MLK2,0.6%
same,inhibition at 1 µM,NEK9,-23.1 ± 0.2%
same,inhibition at 1 µM,TSSK2,0.7%
same,inhibition at 1 µM,MST4,-2.1%
same,inhibition at 1 µM,PKCh,-6.1 ± 0.1%
same,inhibition at 1 µM,FES,14.9 ± 1.1%
same,inhibition at 1 µM,RSK2,5.6 ± 0.1%
same,inhibition at 1 µM,CDK7,86.7 ± 10.9%
same,inhibition at 1 µM,PKACa,-0.8%
